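Tested at 5 concentrations; 48 h exposure; 96-well plates; endpoints linearly interpolated, else capped at highest concentration. Abbreviation: GI50, concentration required for 50% inhibition of growth.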 Calls of active or inactive are those of the source. Rule as the data show it: active = GI50 up to about 1.1 µM and inactive = higher.
Legend:
Test in all cases: NCI tumour cell line growth inhibition, 48 h
SK-MEL-5 = test system: SK-MEL-5
SK-MEL-2 = test system: SK-MEL-2
HL-60 = test system: HL-60
HCC 2998 = test system: HCC 2998
RPMI-8226 = test system: RPMI-8226
IGROV-1 = test system: IGROV-1
M19-MEL = test system: M19-MEL
A549 = test system: A549
ACHN = test system: ACHN
HT-29 = test system: HT-29
HOP-62 = test system: HOP-62
NCI-H460 = test system: NCI-H460
RXF 393 = test system: RXF 393
SF-539 = test system: SF-539
786-0 = test system: 786-0
NCI-H522 = test system: NCI-H522
OVCAR-5 = test system: OVCAR-5
SK-MEL-28 = test system: SK-MEL-28
HCT-116 = test system: HCT-116
SR = test system: SR

| SMILES | GI50 (SK-MEL-5) | GI50 (SK-MEL-2) | GI50 (HL-60) | GI50 (HCC 2998) | GI50 (RPMI-8226) | GI50 (IGROV-1) | GI50 (M19-MEL) | GI50 (A549) | GI50 (ACHN) | GI50 (HT-29) | GI50 (HOP-62) | GI50 (NCI-H460) | GI50 (RXF 393) | GI50 (SF-539) | GI50 (786-0) | GI50 (NCI-H522) | GI50 (OVCAR-5) | GI50 (SK-MEL-28) | GI50 (HCT-116) | GI50 (SR) |
| --- | --- | --- | --- | --- | --- | --- | --- | --- | --- | --- | --- | --- | --- | --- | --- | --- | --- | --- | --- | --- |
| CC1=C(C(=O)Nc2ccc([N+](=O)[O-])cc2)C(c2ccc(N(C)C)cc2)C(C(=O)Nc2ccc([N+](=O)[O-])cc2)=C(C)N1 | 15 µM (inactive) | 13.7 µM (inactive) | 13.1 µM (inactive) | 12 µM (inactive) | 12.2 µM (inactive) | 19.1 µM (inactive) | 15.6 µM (inactive) | 21.2 µM (inactive) | 0.0475 µM (active) | 23.4 µM (inactive) | 12.6 µM (inactive) | 17.4 µM (inactive) | 12.1 µM (inactive) | 23 µM (inactive) | 23.3 µM (inactive) | 11 µM (inactive) | 23.2 µM (inactive) | 13.5 µM (inactive) | – | – |
| CC1=NN(C(=O)Cc2ccccc2)C(=O)/C1=C\c1ccc(O)cc1 | > 100 µM (inactive) | > 100 µM (inactive) | > 100 µM (inactive) | > 100 µM (inactive) | > 100 µM (inactive) | > 100 µM (inactive) | > 100 µM (inactive) | > 100 µM (inactive) | > 100 µM (inactive) | > 100 µM (inactive) | > 100 µM (inactive) | > 100 µM (inactive) | > 100 µM (inactive) | > 100 µM (inactive) | > 100 µM (inactive) | > 100 µM (inactive) | > 100 µM (inactive) | > 100 µM (inactive) | > 100 µM (inactive) | – |
| CC(C)(Oc1ccc2c(=O)cc(-c3ccccc3)oc2c1)C(=O)Nc1c(Cl)cccc1Cl | 26.5 µM (inactive) | > 100 µM (inactive) | 44.3 µM (inactive) | – | 47.8 µM (inactive) | > 100 µM (inactive) | 68.2 µM (inactive) | 67.1 µM (inactive) | – | > 100 µM (inactive) | > 100 µM (inactive) | > 100 µM (inactive) | < 0.01 µM (active) | > 100 µM (inactive) | 97.1 µM (inactive) | 38 µM (inactive) | > 100 µM (inactive) | > 100 µM (inactive) | 59.2 µM (inactive) | > 100 µM (inactive) |
| NNC(=S)N/N=C(\c1nc2ccc(Cl)cc2nc1O)C(O)c1ccc(Cl)cc1Cl (stereo unspecified) | > 100 µM (inactive) | > 100 µM (inactive) | > 100 µM (inactive) | – | > 100 µM (inactive) | > 100 µM (inactive) | > 100 µM (inactive) | > 100 µM (inactive) | > 100 µM (inactive) | > 100 µM (inactive) | > 100 µM (inactive) | > 100 µM (inactive) | > 100 µM (inactive) | > 100 µM (inactive) | > 100 µM (inactive) | > 100 µM (inactive) | > 100 µM (inactive) | > 100 µM (inactive) | > 100 µM (inactive) | > 100 µM (inactive) |
| O=C(O)CN(c1ccc(Cl)cc1)S(=O)(=O)c1ccccc1 | > 100 µM (inactive) | > 100 µM (inactive) | > 100 µM (inactive) | – | > 100 µM (inactive) | > 100 µM (inactive) | > 100 µM (inactive) | > 100 µM (inactive) | > 100 µM (inactive) | > 100 µM (inactive) | – | > 100 µM (inactive) | > 100 µM (inactive) | > 100 µM (inactive) | > 100 µM (inactive) | > 100 µM (inactive) | > 100 µM (inactive) | > 100 µM (inactive) | – | – |
| CC1=C(C(=O)Nc2cccc(C(F)(F)F)c2)C(c2ccccc2F)C(C(=O)Nc2cccc(C(F)(F)F)c2)=C(C)N1 | 5.43 µM (inactive) | 3.03 µM (inactive) | 2.69 µM (inactive) | 3.31 µM (inactive) | 2.58 µM (inactive) | 11.3 µM (inactive) | 7.45 µM (inactive) | 4.58 µM (inactive) | 4.2 µM (inactive) | 3.66 µM (inactive) | 12.9 µM (inactive) | 4.23 µM (inactive) | 3.57 µM (inactive) | 8.75 µM (inactive) | 6.49 µM (inactive) | 4.79 µM (inactive) | 10.5 µM (inactive) | 11 µM (inactive) | 3.63 µM (inactive) | – |
| COC(=O)C(=O)C(C(=O)C1=NS(=O)(=O)c2cc(S(N)(=O)=O)c(Cl)cc2N1)c1nc2ccc(C(=O)c3ccccc3)cc2nc1O (stereo unspecified) | 40.2 µM (inactive) | > 100 µM (inactive) | – | > 100 µM (inactive) | > 100 µM (inactive) | > 100 µM (inactive) | > 100 µM (inactive) | > 100 µM (inactive) | > 100 µM (inactive) | > 100 µM (inactive) | – | > 100 µM (inactive) | > 100 µM (inactive) | 90.6 µM (inactive) | > 100 µM (inactive) | 37.2 µM (inactive) | 58.7 µM (inactive) | > 100 µM (inactive) | > 100 µM (inactive) | 47.9 µM (inactive) |
| Nc1nc2c(nnn2C2C=C(CO)C(O)C2O)c(=O)[nH]1 (stereo unspecified) | > 100 µM (inactive) | 24.2 µM (inactive) | – | > 100 µM (inactive) | – | > 100 µM (inactive) | > 100 µM (inactive) | > 100 µM (inactive) | > 100 µM (inactive) | > 100 µM (inactive) | > 100 µM (inactive) | > 100 µM (inactive) | 78 µM (inactive) | > 100 µM (inactive) | 68.5 µM (inactive) | > 100 µM (inactive) | > 100 µM (inactive) | > 100 µM (inactive) | > 100 µM (inactive) | > 100 µM (inactive) |
| CCN(CC)c1c(C(=O)/C=C/c2ccc(OC)cc2)c(-c2ccccc2)nn(C)c1=O | 8.41 µM (inactive) | 18.6 µM (inactive) | 6.7 µM (inactive) | – | – | 19.2 µM (inactive) | 6.34 µM (inactive) | 12 µM (inactive) | 10.9 µM (inactive) | 9.51 µM (inactive) | 45.9 µM (inactive) | 7.83 µM (inactive) | 10.6 µM (inactive) | 17.1 µM (inactive) | 14.1 µM (inactive) | – | 5.46 µM (inactive) | 16.7 µM (inactive) | – | 5.55 µM (inactive) |
| CO/C=C/c1cc2c(cc1C(OC)OC)OCO2 | 17.4 µM (inactive) | 82.2 µM (inactive) | 3.56 µM (inactive) | > 100 µM (inactive) | – | 60.1 µM (inactive) | 76.4 µM (inactive) | > 100 µM (inactive) | 83.4 µM (inactive) | 39.4 µM (inactive) | 26.7 µM (inactive) | 36 µM (inactive) | 40.9 µM (inactive) | 34.7 µM (inactive) | 42.6 µM (inactive) | > 100 µM (inactive) | 52.8 µM (inactive) | > 100 µM (inactive) | 27.5 µM (inactive) | 44.6 µM (inactive) |
| CN1CC(=O)N(C)c2ncn(Cc3ccccc3)c2C1=O | > 100 µM (inactive) | – | > 100 µM (inactive) | > 100 µM (inactive) | > 100 µM (inactive) | > 100 µM (inactive) | > 100 µM (inactive) | > 100 µM (inactive) | > 100 µM (inactive) | > 100 µM (inactive) | – | > 100 µM (inactive) | > 100 µM (inactive) | > 100 µM (inactive) | > 100 µM (inactive) | – | – | > 100 µM (inactive) | – | > 100 µM (inactive) |
| N#CC(NNC(=O)Cc1ccccc1)c1cccc(O)c1 (stereo unspecified) | > 100 µM (inactive) | > 100 µM (inactive) | > 100 µM (inactive) | – | > 100 µM (inactive) | > 100 µM (inactive) | > 100 µM (inactive) | > 100 µM (inactive) | > 100 µM (inactive) | > 100 µM (inactive) | > 100 µM (inactive) | > 100 µM (inactive) | > 100 µM (inactive) | > 100 µM (inactive) | > 100 µM (inactive) | > 100 µM (inactive) | > 100 µM (inactive) | > 100 µM (inactive) | > 100 µM (inactive) | > 100 µM (inactive) |
| COC(=O)C1C(O)CC(c2ccccn2)N(Cc2ccccc2)C1c1ccccn1 (stereo unspecified) | 84.3 µM (inactive) | > 100 µM (inactive) | 15.6 µM (inactive) | > 100 µM (inactive) | 23.4 µM (inactive) | > 100 µM (inactive) | > 100 µM (inactive) | > 100 µM (inactive) | > 100 µM (inactive) | > 100 µM (inactive) | > 100 µM (inactive) | > 100 µM (inactive) | > 100 µM (inactive) | > 100 µM (inactive) | > 100 µM (inactive) | > 100 µM (inactive) | > 100 µM (inactive) | > 100 µM (inactive) | 94.4 µM (inactive) | – |
| CN(C)NC1=NS(=O)(=O)c2cc3c(=O)n(C)[nH]c3cc2S1 | > 10 µM (inactive) | > 10 µM (inactive) | > 10 µM (inactive) | > 10 µM (inactive) | > 10 µM (inactive) | > 10 µM (inactive) | – | > 10 µM (inactive) | > 10 µM (inactive) | > 10 µM (inactive) | > 10 µM (inactive) | > 10 µM (inactive) | > 10 µM (inactive) | > 10 µM (inactive) | > 10 µM (inactive) | > 10 µM (inactive) | > 10 µM (inactive) | > 10 µM (inactive) | > 10 µM (inactive) | > 10 µM (inactive) |
| COC(=O)C1=C(c2cc(OC)c(OC)c(OC)c2)OC(c2cc(OC)c(OC)c(OC)c2)C1COC(C)=O (stereo unspecified) | 29.4 µM (inactive) | – | 10.3 µM (inactive) | 50.9 µM (inactive) | 29.1 µM (inactive) | 54.1 µM (inactive) | 32.1 µM (inactive) | 51.4 µM (inactive) | 30.1 µM (inactive) | 35.5 µM (inactive) | 36.6 µM (inactive) | 36.6 µM (inactive) | 40.6 µM (inactive) | > 100 µM (inactive) | 26.1 µM (inactive) | 16.7 µM (inactive) | 18.1 µM (inactive) | > 100 µM (inactive) | 30.4 µM (inactive) | 16.7 µM (inactive) |
